Reference: publication PMC4022547 (Molecular Brain, 2014)

Tests used:
[1] = target: T1, hα6(R96H) + hβ4 + hβ3 nAChR (Homo sapiens, UniProt P30926+Q15825, R96H); assay: Oocyte two-electrode voltage clamp; format: cell-based
T1 construct: Full length capped mRNA (i.e., cRNA) was transcribed from linearized plasmids; expressed in transfected cells; host or cells: Xenopus laevis oocytes injected with cRNA
Description: (§1) We planned to introduce identical amounts of cRNA, presumably producing equal amounts of each subunit protein, into oocytes largely due to lack of information about the levels of mRNA for each subunits that compose α6*-nAChRs in neurons or other cells. Concentrations of cRNAs for each nAChR α and β subunits (WT, mutant or variant) were adjusted to 500 ng μL^−1. We provisionally assumed that hα6 or its variants in association with hβ2 or hβ4 subunits would form complexes having 2:3 and/or 3:2 ratios of the indicated subunits and that oocytes also injected with WT or mutant form of β3 subunits (i.e., β3^V9’S) would express nAChR with 2:2:1 ratios of α:β:(β3 or β3^V9’S) subunits. For expression of binary nAChRs (i.e., two subunit containing nAChRs; α + β but not β3) cRNA mixtures were prepared by mixing 1 μL of cRNA for each subunit and an additional μL of RNAse free water (i.e., total volume 3 μL). Similarly for expression of ternary nAChRs [i.e., three subunit containing nAChRs; (α + β) + (β3 or β3^V9’S)] cRNA mixtures were prepared by mixing 1 μL of cRNA for each subunit. Several preparations of each mixture were prepared and stored at −80°C until further use. Injection of 138 nL of cRNA, out of 3 μL cRNA mixtures, into each oocyte would deliver ~23 ng of cRNA for each subunit whether binary or ternary nAChRs are expressed.
(§2) Two to 5 days after injection, oocytes were placed in a small-volume chamber and continuously perfused with OR2. The chamber was grounded through an agarose bridge. The oocytes were voltage-clamped at −70 mV (unless otherwise noted) to measure agonist or antagonist induced currents using Axoclamp 900A and pClamp 10.2 software (Molecular Devices, Sunnyvale, CA). The current signal was low-pass filtered at 10 Hz with the built-in low-pass Bessel filter in the Axoclamp 900A and digitized at 20 Hz with Axon Digidata1440A and pClamp10. […] Drugs (agonists and antagonists) were prepared daily in OR2. Drug was applied using a Valvelink 8.2 perfusion system (Automate scientific, Berkeley, CA). […] Then for the purpose of comparison electrophysiological recordings were performed in a given day in a given batch of oocytes following the same order of injections. […] All hβ4*-nAChR recordings were done in similar conditions to facilitate comparisons between hα6hβ4- and hα6hβ4hβ3-nAChRs. All electrophysiological measurements were conducted or checked in at least two batches of oocytes.
(§3) Raw data was collected and processed in part using pClamp 10.2 (Molecular Devices, Sunnyvale, CA), Origin 7.5 (OriginLab Corporation, Northampton, MA) and a spreadsheet (Excel; Microsoft, Bellevue, WA). Peak current amplitudes (Imax) are reported as mean ± SEM (for results from at least three oocytes, i.e., n = 3).

[2] = target: hα6 + hβ4 nAChR (Homo sapiens, UniProt P30926+Q15825); assay: Oocyte two-electrode voltage clamp; format: cell-based
Sequence of hα6 + hβ4 nAChR (Q15825 26-494): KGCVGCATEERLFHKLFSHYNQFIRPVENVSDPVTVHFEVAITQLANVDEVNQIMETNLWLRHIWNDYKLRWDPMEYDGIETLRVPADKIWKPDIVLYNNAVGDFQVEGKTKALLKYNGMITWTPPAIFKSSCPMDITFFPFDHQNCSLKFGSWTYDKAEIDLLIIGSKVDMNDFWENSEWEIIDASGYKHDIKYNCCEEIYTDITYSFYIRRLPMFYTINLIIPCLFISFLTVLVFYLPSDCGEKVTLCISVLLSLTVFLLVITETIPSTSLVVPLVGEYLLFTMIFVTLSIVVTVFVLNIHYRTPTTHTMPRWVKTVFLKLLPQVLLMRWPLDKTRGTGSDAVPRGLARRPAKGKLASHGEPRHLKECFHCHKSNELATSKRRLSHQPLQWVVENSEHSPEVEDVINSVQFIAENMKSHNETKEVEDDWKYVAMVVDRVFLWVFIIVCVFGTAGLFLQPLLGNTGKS
Sequence of hα6 + hβ4 nAChR (P30926 22-498): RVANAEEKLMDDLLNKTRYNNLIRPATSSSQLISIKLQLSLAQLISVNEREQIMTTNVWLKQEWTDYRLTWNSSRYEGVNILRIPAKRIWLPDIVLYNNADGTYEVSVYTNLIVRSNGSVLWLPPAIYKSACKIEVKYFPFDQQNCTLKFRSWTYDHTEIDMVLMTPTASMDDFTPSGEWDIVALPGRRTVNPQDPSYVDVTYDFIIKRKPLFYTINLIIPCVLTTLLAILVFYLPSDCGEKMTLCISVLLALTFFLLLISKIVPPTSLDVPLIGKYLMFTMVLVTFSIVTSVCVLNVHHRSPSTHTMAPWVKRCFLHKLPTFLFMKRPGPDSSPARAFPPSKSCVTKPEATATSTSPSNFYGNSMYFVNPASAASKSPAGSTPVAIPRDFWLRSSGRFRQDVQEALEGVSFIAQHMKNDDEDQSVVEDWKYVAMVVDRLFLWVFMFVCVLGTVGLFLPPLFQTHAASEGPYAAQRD
Description: as §1, §2, §3

[3] = target: T2, hα6(R87C) + WT hβ2 + hβ3^V9’S nAChR (Homo sapiens, UniProt P17787+Q15825, R87C); assay: Oocyte two-electrode voltage clamp; format: cell-based
T2 construct: Full length capped mRNA (i.e., cRNA) was transcribed from linearized plasmids; expressed in transfected cells; host or cells: Xenopus laevis oocytes injected with cRNA
T2 sequence (Q15825 26-494 R87C): as the sequence (Q15825 26-494) above, with R62C counted along it
T2 sequence (P17787 26-502): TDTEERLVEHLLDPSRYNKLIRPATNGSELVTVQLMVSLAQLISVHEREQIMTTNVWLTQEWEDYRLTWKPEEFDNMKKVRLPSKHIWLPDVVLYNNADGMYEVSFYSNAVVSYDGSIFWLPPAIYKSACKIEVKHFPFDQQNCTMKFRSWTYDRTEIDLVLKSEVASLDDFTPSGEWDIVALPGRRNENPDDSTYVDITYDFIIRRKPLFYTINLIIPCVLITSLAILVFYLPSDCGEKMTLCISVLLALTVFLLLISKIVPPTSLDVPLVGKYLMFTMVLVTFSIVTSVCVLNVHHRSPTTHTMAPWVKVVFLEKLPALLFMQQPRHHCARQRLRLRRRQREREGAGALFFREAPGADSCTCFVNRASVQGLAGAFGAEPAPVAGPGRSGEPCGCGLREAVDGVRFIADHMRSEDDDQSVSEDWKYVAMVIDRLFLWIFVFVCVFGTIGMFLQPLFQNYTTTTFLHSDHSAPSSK
T2 sequence (Q05901 25-458 V273S partner limits assumed): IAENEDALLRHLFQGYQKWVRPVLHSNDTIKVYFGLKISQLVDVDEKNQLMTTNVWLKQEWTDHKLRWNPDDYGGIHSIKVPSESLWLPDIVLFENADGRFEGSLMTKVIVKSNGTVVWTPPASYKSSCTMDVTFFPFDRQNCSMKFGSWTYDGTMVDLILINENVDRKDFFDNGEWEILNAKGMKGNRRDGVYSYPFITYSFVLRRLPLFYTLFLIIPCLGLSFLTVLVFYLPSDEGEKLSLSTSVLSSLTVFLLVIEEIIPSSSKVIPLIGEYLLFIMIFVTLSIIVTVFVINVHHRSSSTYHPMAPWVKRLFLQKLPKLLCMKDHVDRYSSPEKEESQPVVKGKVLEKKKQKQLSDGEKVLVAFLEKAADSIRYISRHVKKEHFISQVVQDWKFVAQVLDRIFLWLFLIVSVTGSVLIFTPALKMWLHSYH
Description: as §1, §2, §3

[4] = target: hα6(A184D) + hβ4 + hβ3 nAChR (Homo sapiens, UniProt P30926+Q15825, A184D); assay: Oocyte two-electrode voltage clamp; format: cell-based
Sequence of hα6(A184D) + hβ4 + hβ3 nAChR (Q15825 26-494 A184D): as the sequence (Q15825 26-494) above, with A159D counted along it
Sequence of hα6(A184D) + hβ4 + hβ3 nAChR (P30926 22-498): as the sequence (P30926 22-498) above
Sequence of hα6(A184D) + hβ4 + hβ3 nAChR (Q05901 25-458 partner limits assumed): as the sequence (Q05901 25-458 V273S partner limits assumed) above, with S249V counted along it
Description: as §1, §2, §3

[5] = target: hα6(A184D) + hβ4 nAChR (Homo sapiens, UniProt P30926+Q15825, A184D); assay: Oocyte two-electrode voltage clamp; format: cell-based
Sequence of hα6(A184D) + hβ4 nAChR (Q15825 26-494 A184D): as the sequence (Q15825 26-494) above, with A159D counted along it
Sequence of hα6(A184D) + hβ4 nAChR (P30926 22-498): as the sequence (P30926 22-498) above
Description: as §1, §2, §3

[6] = target: T3, hα6(R96H) + hβ4 nAChR (Homo sapiens, UniProt P30926+Q15825, R96H); assay: Oocyte two-electrode voltage clamp; format: cell-based
T3 construct: Full length capped mRNA (i.e., cRNA) was transcribed from linearized plasmids; expressed in transfected cells; host or cells: Xenopus laevis oocytes injected with cRNA
T3 sequence (Q15825 26-494 R96H): as the sequence (Q15825 26-494) above, with R71H counted along it
T3 sequence (P30926 22-498, stated change not applied): as the sequence (P30926 22-498) above
Description: as §1, §2, §3

[7] = target: hα6(S233C) + hβ4 nAChR (Homo sapiens, UniProt P30926+Q15825, S233C); assay: Oocyte two-electrode voltage clamp; format: cell-based
Sequence of hα6(S233C) + hβ4 nAChR (Q15825 26-494 S233C): as the sequence (Q15825 26-494) above, with S208C counted along it
Sequence of hα6(S233C) + hβ4 nAChR (P30926 22-498): as the sequence (P30926 22-498) above
Description: as §1, §2, §3

[8] = target: hα6^N171Khβ4β3^V9’S-nAChR (Homo sapiens, UniProt P30926+Q15825, N171K); settings: nicotine (100 μM), ACh (100 μM) or atropine (1000 μM)
Sequence of hα6^N171Khβ4β3^V9’S-nAChR (Q15825 26-494 N171K): as the sequence (Q15825 26-494) above, with N146K counted along it
Sequence of hα6^N171Khβ4β3^V9’S-nAChR (P30926 22-498): as the sequence (P30926 22-498) above
Sequence of hα6^N171Khβ4β3^V9’S-nAChR (Q05901 25-458 V273S partner limits assumed): as the sequence (Q05901 25-458 V273S partner limits assumed) above
Description: as §1, §2

[9] = target: hα6^S156Rhβ4hβ3^V9’S-nAChR (Homo sapiens, UniProt P30926+Q15825, S156R); settings: nicotine (100 μM), ACh (100 μM) or atropine (1000 μM)
Sequence of hα6^S156Rhβ4hβ3^V9’S-nAChR (Q15825 26-494 S156R): as the sequence (Q15825 26-494) above, with S131R counted along it
Sequence of hα6^S156Rhβ4hβ3^V9’S-nAChR (P30926 22-498): as the sequence (P30926 22-498) above
Sequence of hα6^S156Rhβ4hβ3^V9’S-nAChR (Q05901 25-458 V273S partner limits assumed): as the sequence (Q05901 25-458 V273S partner limits assumed) above
Description: as §1, §2

[10] = target: hα6^R87C + hβ4 + hβ3^V9’S nAChR (Homo sapiens, UniProt P30926+Q15825, R87C); settings: nicotine (100 μM), ACh (100 μM) or atropine (1000 μM)
Sequence of hα6^R87C + hβ4 + hβ3^V9’S nAChR (Q15825 26-494 R87C): as the sequence (Q15825 26-494) above, with R62C counted along it
Sequence of hα6^R87C + hβ4 + hβ3^V9’S nAChR (P30926 22-498): as the sequence (P30926 22-498) above
Sequence of hα6^R87C + hβ4 + hβ3^V9’S nAChR (Q05901 25-458 V273S partner limits assumed): as the sequence (Q05901 25-458 V273S partner limits assumed) above
Description: as §1, §2

[11] = target: hα6hβ4hβ3^V9’S-nAChR (Homo sapiens, UniProt P30926+Q05901+Q15825, V273S); settings: nicotine (100 μM), ACh (100 μM) or atropine (1000 μM); spontaneously opening channels
Sequence of hα6hβ4hβ3^V9’S-nAChR (Q15825 26-494): as the sequence (Q15825 26-494) above
Sequence of hα6hβ4hβ3^V9’S-nAChR (P30926 22-498): as the sequence (P30926 22-498) above
Sequence of hα6hβ4hβ3^V9’S-nAChR (Q05901 22-458 V273S): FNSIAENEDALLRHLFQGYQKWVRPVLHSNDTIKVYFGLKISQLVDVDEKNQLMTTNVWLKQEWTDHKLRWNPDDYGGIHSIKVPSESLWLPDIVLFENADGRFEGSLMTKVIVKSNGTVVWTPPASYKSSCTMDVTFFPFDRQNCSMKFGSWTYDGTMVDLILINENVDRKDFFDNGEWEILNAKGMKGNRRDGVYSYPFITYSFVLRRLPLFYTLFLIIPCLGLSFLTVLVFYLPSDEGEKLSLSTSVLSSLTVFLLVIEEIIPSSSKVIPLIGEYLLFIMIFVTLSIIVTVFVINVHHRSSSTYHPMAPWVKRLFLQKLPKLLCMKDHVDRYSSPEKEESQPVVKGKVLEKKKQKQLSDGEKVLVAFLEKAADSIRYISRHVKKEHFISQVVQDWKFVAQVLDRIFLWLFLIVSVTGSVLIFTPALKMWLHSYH
Description: as §1, §2

[12] = target: hα6^D57Nhβ4hβ3^V9’S-nAChR (Homo sapiens, UniProt P30926+Q15825, D57N); settings: nicotine (100 μM), ACh (100 μM) or atropine (1000 μM)
Sequence of hα6^D57Nhβ4hβ3^V9’S-nAChR (Q15825 26-494 D57N): as the sequence (Q15825 26-494) above, with D32N counted along it
Sequence of hα6^D57Nhβ4hβ3^V9’S-nAChR (P30926 22-498): as the sequence (P30926 22-498) above
Sequence of hα6^D57Nhβ4hβ3^V9’S-nAChR (Q05901 25-458 V273S partner limits assumed): as the sequence (Q05901 25-458 V273S partner limits assumed) above
Description: as §1, §2

[13] = 100 μM nicotine, oocytes clamped at −70 mV

T1 sequence (Q15825 26-494 R96H): as the sequence (Q15825 26-494) above, with R71H counted along it
T1 sequence (P30926 22-498, stated change not applied): as the sequence (P30926 22-498) above
T1 sequence (Q05901 25-458 partner limits assumed): as the sequence (Q05901 25-458 V273S partner limits assumed) above, with S249V counted along it

In the case of `CN1CCC[C@H]1c1cccnc1` [nicotine, L-nicotine], the EC50 [1] is reported as 8.2 µM, the “Imax conc. (concentration where maximal peak current achieved)” value [1] is reported as 100 µM and the “nH ± SE (Hill coefficient)” value [1] is reported as 1.2±0.13. The “Mean (±SE) peak current response” value [1, 13] was 513 ± 42 nA, the “Imax conc. (concentration where maximal peak current achieved)” value [2] was 100 µM and the “peak current (Imax, mean ± SE)” value [2, 13] was 35 ± 2 nA. For the same compound, the current response ([3]; ACh, nicotine or atropine, hβ2 type not specified) was “not obtained”, the current response ([3]; nicotine) was “did not yield current responses” and the EC50 [4] was 4.9 µM. For the same compound, the “Imax conc. (concentration where maximal peak current achieved)” value [4] was 100 µM, the “nH ± SE (Hill coefficient)” value [4] was 1.1±0.11 and the “Mean (±SE) peak current response” value [4, 13] was 554 ± 108 nA. For the same compound, the EC50 [5] was 2.7 µM, the “Imax conc. (concentration where maximal peak current achieved)” value [5] was 100 µM and the “nH ± SE (Hill coefficient)” value [5] was 1.1±0.15. The “peak current (Imax, mean ± SE)” value [5, 13] was 122 ± 12 nA, the “Imax conc. (concentration where maximal peak current achieved)” value [6] was 100 µM and the “peak current (Imax, mean ± SE)” value [6, 13] was 73 ± 10 nA. The EC50 [7] was 6.2 µM, the “Imax conc. (concentration where maximal peak current achieved)” value [7] was 100 µM and the “nH ± SE (Hill coefficient)” value [7] was 1.4±0.13. For the same compound, the “peak current (Imax, mean ± SE)” value [7, 13] was 73 ± 20 nA, the “current response (direction)” value [8] was “outward reversible currents” and the “current response (direction)” value [9] was “outward reversible currents”. For the same compound, the current response [10] was “not obtained”, the “current response (direction)” value [11] was “robust inward current” and the “current response (direction)” value [12] was “outward reversible currents”.
